What was measured:
[1] = Liquid, Capillary tube (Ostwald / Ubbelohde) method
[2] = xn = mol fraction of the nth substance listed; conditions: Liquid, isochoric method, x1 = 0.1965

CCCCCCCCCCO [decan-1-ol]
[1]
Conditions | viscosity [mPa·s]
298.15 K, 2000 kPa | 11.25
298.15 K, 3990 kPa | 11.54
298.15 K, 6010 kPa | 11.79
298.15 K, 8010 kPa | 12.05
298.15 K, 10010 kPa | 12.35
298.15 K, 13010 kPa | 12.74
298.15 K, 16010 kPa | 13.16
298.15 K, 19010 kPa | 13.57
298.15 K, 22010 kPa | 14.01
298.15 K, 25000 kPa | 14.46
298.15 K, 28000 kPa | 14.89
298.15 K, 29990 kPa | 15.19
303.15 K, 1990 kPa | 8.895
303.15 K, 4000 kPa | 9.117
303.15 K, 5980 kPa | 9.337
303.15 K, 8010 kPa | 9.562
303.15 K, 10020 kPa | 9.784
303.15 K, 12980 kPa | 10.11
303.15 K, 15970 kPa | 10.44
303.15 K, 19020 kPa | 10.78
303.15 K, 22000 kPa | 11.11
303.15 K, 24980 kPa | 11.44
303.15 K, 27980 kPa | 11.77
303.15 K, 30010 kPa | 12
313.15 K, 2030 kPa | 6.219
313.15 K, 4020 kPa | 6.374
313.15 K, 6000 kPa | 6.526
313.15 K, 7980 kPa | 6.68
313.15 K, 9980 kPa | 6.835
313.15 K, 12990 kPa | 7.068
313.15 K, 15990 kPa | 7.299
313.15 K, 18990 kPa | 7.532
313.15 K, 22010 kPa | 7.766
313.15 K, 25020 kPa | 7.999
313.15 K, 28020 kPa | 8.231
313.15 K, 29980 kPa | 8.382
323.15 K, 2000 kPa | 4.735
323.15 K, 4010 kPa | 4.857
323.15 K, 6010 kPa | 4.97
323.15 K, 8010 kPa | 5.091
323.15 K, 9990 kPa | 5.202
323.15 K, 13010 kPa | 5.369
323.15 K, 16010 kPa | 5.54
323.15 K, 19020 kPa | 5.726
323.15 K, 22020 kPa | 5.892
323.15 K, 25010 kPa | 6.072
323.15 K, 28000 kPa | 6.247
323.15 K, 30010 kPa | 6.373

CCCCCCCC [octane] + O=C=O
mass density [kg/m3], [2]
Conditions | 313.05 K | 322.96 K | 332.84 K
8000 kPa | 740.9 | – | –
9000 kPa | 750.1 | 716.1 | –
10000 kPa | 758.3 | 724.1 | –
11000 kPa | 765.4 | 731.9 | –
12000 kPa | 771.9 | 739.1 | –
13000 kPa | 777.9 | 745.8 | –
14000 kPa | 783.5 | 752 | –
15000 kPa | 788.7 | 757.7 | –
16000 kPa | 793.6 | 763.1 | 732.9
17000 kPa | 798.2 | 768.2 | 739.2
18000 kPa | 802.7 | 772.9 | 745.1
19000 kPa | – | 777.5 | 750.6
19170 kPa | 807 | – | –
20000 kPa | 811.1 | 781.8 | 755.8
21000 kPa | 815 | 786 | –
21020 kPa | – | – | 760.8
22000 kPa | 818.7 | 789.9 | –
22020 kPa | – | – | 765.4
22960 kPa | – | 793.6 | –
22980 kPa | – | – | 769.7
22990 kPa | 822.2 | – | –
23960 kPa | – | 797.3 | –
23990 kPa | – | – | 773.9
24000 kPa | 825.6 | – | –
24550 kPa | 827.5 | – | –
24790 kPa | – | – | 777.1
